Tests used:
[1] = system: T1, ZIKV RNA polymerase (ZVRP), partially purified from ZIKV-infected BHK-21 cells; assay: RdRp assay, labelled UTP incorporation on ZIKV RNA, ALPHA detection; format: biochemical, Zika virus; conditions: 0.4 mM each ATP, GTP, CTP and labelled UTP; 3 mM MgCl2; pH 7.3; 30 °C; 1 h; partially purified enzyme
T1 construct: gene NS5; mature NS5 from the genome polyprotein; native, partially purified from infected BHK-21 cells (100,000 x g supernatant, DEAE- and phospho-cellulose)

[2] = system: T2, recombinant ZVRP (C-terminal portion); assay: as above; format: biochemical, Zika virus; conditions: 0.4 mM each ATP, GTP, CTP and labelled UTP; 3 mM MgCl2; pH 7.3; 30 °C; 1 h
T2 construct: gene NS5; pET-41b+ BamHI/SacI, N-terminal GST tag, E. coli BL21; B3U3M3 is printed for the 3D model only

C[C@@]1(F)[C@H](O)[C@@H](COP(=O)(O)OP(=O)(O)OP(=O)(O)O)O[C@H]1n1ccc(=O)[nH]c1=O [STP, β-d-2′-deoxy-2′-α-fluoro-2′-β-C-methyluridine triphosphate]
IC50 [1]: 380 ± 30 nM | IC50 [2]: 610 ± 80 nM

NC(=O)c1ncn([C@@H]2O[C@H](COP(=O)(O)OP(=O)(O)OP(=O)(O)O)[C@@H](O)[C@H]2O)n1 [RTP, ribavirin triphosphate]
IC50 [1]: 210 ± 60 nM | IC50 [2]: 620 ± 50 nM

Cc1cn([C@H]2C[C@H](N=[N+]=[N-])[C@@H](COP(=O)(O)OP(=O)(O)OP(=O)(O)O)O2)c(=O)[nH]c1=O [AZT-TP, AZT triphosphate]
IC50 [1]: > 10000 nM | IC50 [2]: > 10000 nM

Source: PMC5241873, “The clinically approved antiviral drug sofosbuvir inhibits Zika virus replication” (Scientific Reports, 2017)
